Assay results from EP0642504B1 (priority 1991, dated 1993).
Marks after values point to notes of the source that are not given here.

What was measured:
[1] = test system: peritoneal leukocytes; assay: Leukocyte adhesion assay, peritoneal cells collected after oral dosing; assay type: in vivo, CD-1 mice
Protocol: Leukocytes are thought to be major contributors to the inflammatory response and their ability in this regard is reflected by their adhesiveness to a variety of substrates [Audette, C.A., et al., Life Sci., 47, 753 (1990)].
The details of the leukocytes adhesion assay have been previously reported [Audette et al., ibid.]. In brief, peritoneal cells from femals CD-1 mice (20-25 g) were collected at 90 min following oral administration of the drug or vehicle (50 µl peanut oil). Cells from each treatment group (N=3) were pooled and equal numbers aliquoted into six culture dish wells (1.9 cm^2 area). After incubation for 18-20 hours, non-adhering cells were removed and the remaining cell monolayer quantitated by DNA measurement.

[2] = test system: picrotoxin induced lethality; assay: Protection against picrotoxin induced lethality; assay type: in vivo, Balb/c male mice; details: drug 10 mg/kg, 120 min before picrotoxin (8 mg/kg) s.c.; no drug 0/17
Description: (§1) The present compounds are active in several tests generally used to indicate neuroprotection.

[3] = test system: N-methyl-D-aspartate (NMDA) induced lethality; assay: Protection against NMDA induced lethality; assay type: in vivo, Balb/c male mice; details: drug 10 mg/kg, 90 min before NMDA (125 mg/kg) s.c.; no drug 0/20
Description: as §1

[4] = test system: forebrain ischemia (unilateral occlusion); assay: Forebrain ischemia (unilateral occlusion); assay type: in vivo; details: mongolian gerbils
Description: as §1

[5] = test system: PAF-Induced Paw Edema; assay: PAF-induced paw edema (water displacement); assay type: in vivo, CD-1 female mice; details: for percent inhibition of paw edema: oral, 15 min after PAF (1.0 µg s.c.), vs vehicle treated controls
Protocol: A second model, in which edema is induced by platelet activating factor (PAF), was used to evaluate activity.
(§2) The conditions were based on those reported previously [Calhoun et al., ibid.]. […] PAF (1.0 µg) or arachidonic acid (1.0 mg) dissolved in 50 µl of 5% ethanol in saline, were injected s.c. into the plantar surface of the right hind paw of CD-1 female mice (20-25 g) obtained from Charles River Labs. The mice were under ether anesthesia during this procedure. The volume of the right foot was measured to the level of the lateral malleous by water displacement before treatment and 15 min after PAF injection or 30 min after archidonate injection. The change in paw volume was calculated for each mouse and the significance for each group was determined by a paired t test analysis.

[6] = test system: mouse; assay: Mouse hot plate test (55°C) for antinociception; assay type: in vivo
Protocol: In the hot plate test for analgesia an aluminum surface was maintained at 55 ± 1°C by circulating water through passages in the metal. A clear plastic cylinder 18 cm in diameter and 26 cm high was placed on the surface to prevent escape. The end point was taken when the mouse either performed a hind paw lick or jumped off the surface; in no case were the animals kept for more than 30 secs on the plate. Mice were never used more than one time; control values were always measured at 11 a.m. and test values at 2 p.m. The drugs were administered orally 90 min before the hot plate test. The percent change in response time (latency) was calculated by comparing the mean of the control values with the mean of the test values and statistical signficance determined by a paired t-test analysis using software (Statview, 512) from Brainpower, Inc., Calabasas, Ca.

[7] = test system: Arachidonic Acid-Induced Paw Edema; assay: Arachidonic acid-induced paw edema (water displacement); assay type: in vivo, CD-1 female mice; details: for percent inhibition of paw edema: oral, 30 min after arachidonic acid (1.0 mg s.c.), vs vehicle treated controls
Protocol: The induction of paw edema in rodents by injection of arachidonic acid has been used as an experimental model for inflammation [Calhoun, W., et al., Agents and Actions, 21, 306 (1987)]. Prior administration of non-steroidal anti-inflammatory drugs (NSAIDs) in many cases leads to a dose related inhibition of the edematous response which may be considered a predictor of clinical efficacy.
as §2

[8] = test system: mouse; assay: Ring test for cataleptic effects; assay type: in vivo; details: 5-min test period, vehicle 7.7 ± 4.4
Protocol: The lack of CNS activity for the compounds described herein may be seen from the data shown in Table V. This was measured by the so-called "ring test" [Pertwee, R.G., et al., J. Pharmacol., 46, 753 (1972)] in which the cataleptic effects of cannabinoids can be quantitated. The compounds produced little or no response when compared with the parent drug.
The cataleptic response was measured using the ring test. Mice were placed on a horizontal wire ring 5.5 cm in diameter, which was attached to a 16 cm vertical rod. The hind paws and fore paws were placed at opposite sides of the ring. It is important that the ambient temperature is maintained at 30°C and that the environment be free of auditory stimuli and bright lights. The criteria for immobility are detailed by Pertwee. The response is calculated as the fraction of time the mouse is immobile over a 5-min test period. Measurements were always done between 2 and 4 p.m. and the animals were used only once.

[9] = test system: intraocular pressure; assay: Reduction of intraocular pressure (anti-glaucoma activity); assay type: in vivo, rabbits; details: 50 µl drop of a 1% emulsion into the rabbit eye
Protocol: Reduction of intraocular pressure in rabbits was determined by the addition of a 50 µl drop of a 1% emulsion of the cannabinoid into the rabbit eye. This test is a measure of anti-glaucomatic activity.

[10] = dose 0.05 mg/kg oral, cells collected 90 min after administration
[11] = dose 0.05 mg/kg oral, cells collected 90 min after administration, 18-20 hours incubation
[12] = dose 0.10 mg/kg oral, cells collected 90 min after administration
[13] = dose 0.10 mg/kg oral, cells collected 90 min after administration, 18-20 hours incubation
[14] = dose 0.50 mg/kg oral, cells collected 90 min after administration
[15] = dose 0.50 mg/kg oral, cells collected 90 min after administration, 18-20 hours incubation
[16] = dose 1.00 mg/kg oral, cells collected 90 min after administration
[17] = dose 1.00 mg/kg oral, cells collected 90 min after administration, 18-20 hours incubation
[18] = dose 0.25 mg/kg orally 90 min before the hot plate test
[19] = dose 0.50 mg/kg orally 90 min before the hot plate test
[20] = dose 1.0 mg/kg orally 90 min before the hot plate test

Compound: CCCCCCC(C)(C)c1cc(O)c2c(c1)OC(C)(C)[C@H]1CC=C(CO)C[C@H]21 [HU-211, reference compound]
- adhering cells, percent of control [1, 10]: 124% of control
- number of adhering cells x 10^-6 ± S.D. [1, 11]: 1.09±0.08 x 10^-6
- adhering cells, percent of control [1, 12]: 50% of control
- number of adhering cells x 10^-6 ± S.D. [1, 13]: 0.44±0.03 x 10^-6
- adhering cells, percent of control [1, 14]: 73% of control
- number of adhering cells x 10^-6 ± S.D. [1, 15]: 0.64±0.06 x 10^-6
- adhering cells, percent of control [1, 16]: 67% of control
- number of adhering cells x 10^-6 ± S.D. [1, 17]: 0.59±0.06 x 10^-6
- Survival rate (number of survivors out of total number of animals used) [2]: 6/10
- Survival rate (number of survivors out of total number of animals used) [3]: 11/16
- protection against forebrain ischemia [4]: protect against forebrain ischemia
- percent inhibition of paw edema ([5]; dose 0.5 mg/kg): 37.5%
- percent inhibition of paw edema ([5]; dose 1.0 mg/kg): 21.9%
- percent change in latency [6, 18]: 30.0(5)* percent
- percent change in latency [6, 19]: 72.5(5)*** percent
- percent change in latency [6, 20]: -10.2(5) percent

Compound: CCCCCCC(C)(C)c1cc(O)c2c(c1)OC(C)(C)[C@H]1CC=C(C(=O)O)C[C@H]21 [HU-235]
- reduction of paw edema (result in words) ([7]; arachidonic acid model, summary of Table 1): effective in reducing paw edema
- percent inhibition of paw edema ([7]; dose 0.050 mg.kg): 42.1 (N.S.) percent
- percent inhibition of paw edema ([7]; dose 0.100 mg.kg): 65.8* percent
- percent inhibition of paw edema ([7]; dose 0.250 mg.kg): 52.6* percent
- percent inhibition of paw edema ([7]; dose 0.55 mg.kg): 47.4%
- adhering cells, percent of control ([1]; dose 0.01 mg/kg oral, cells collected 90 min after administration): 106% of control
- number of adhering cells x 10^-6 ± S.D. ([1]; dose 0.01 mg/kg oral, cells collected 90 min after administration, 18-20 hours incubation): 1.34±0.14 x 10^-6
- adhering cells, percent of control [1, 10]: 102% of control
- number of adhering cells x 10^-6 ± S.D. [1, 11]: 1.29±0.05 x 10^-6
- adhering cells, percent of control [1, 12]: 110% of control
- number of adhering cells x 10^-6 ± S.D. [1, 13]: 1.38±0.17 x 10^-6
- adhering cells, percent of control [1, 14]: 116% of control
- number of adhering cells x 10^-6 ± S.D. [1, 15]: 1.46±0.05 x 10^-6
- adhering cells, percent of control [1, 16]: 56% of control
- number of adhering cells x 10^-6 ± S.D. [1, 17]: 0.70±0.12 x 10^-6
- Survival rate (number of survivors out of total number of animals used) [2]: 8/12
- Survival rate (number of survivors out of total number of animals used) [3]: 7/10
- Response ± SD (means of the fraction of time the mice remained immobile) ([8]; dose 0.25 mg/kg): 12.3 ± 10.3
- Response ± SD (means of the fraction of time the mice remained immobile) ([8]; dose 0.5 mg/kg): 13.8 ± 7.9
- Response ± SD (means of the fraction of time the mice remained immobile) ([8]; dose 1.0 mg/kg): 10.4 ± 10.6
- Response ± SD (means of the fraction of time the mice remained immobile) ([8]; dose 4.0 mg/kg): 8.7 ± 5.6
- protection against forebrain ischemia [4]: protect against forebrain ischemia
- percent inhibition of paw edema ([5]; dose 0.05 mg/kg): 44.4 (N.S.) percent
- percent inhibition of paw edema ([5]; dose 0.10 mg/kg): 38.7* percent
- percent inhibition of paw edema ([5]; dose 0.25 mg/kg): 31.9* percent
- percent inhibition of paw edema ([5]; dose 0.5 mg/kg): 60.1* percent
- activity against PAF-induced edema (result in words) ([5]; summary of Table II): active
- percent change in latency ([6]; dose 0.025 mg/kg orally 90 min before the hot plate test): 10.3(5) percent
- percent change in latency ([6]; dose 0.050 mg/kg orally 90 min before the hot plate test): 61.7(5)* percent
- percent change in latency ([6]; dose 0.10 mg/kg orally 90 min before the hot plate test): 49.5(20)* percent
- percent change in latency [6, 18]: 61.5(17)** percent
- percent change in latency [6, 19]: 51.7(8)* percent
- percent change in latency [6, 20]: 14.7(5) percent
- Reduction of intraocular pressure [9]: Significant reduction

Compound: CCCCCc1cc(O)c2c(c1)OC(C)(C)[C@@H]1CCC(C)=C[C@@H]21 [Δ^1-THC, reference compound]
- Response ± SD (means of the fraction of time the mice remained immobile) ([8]; dose 40 mg/kg): 48.9 ± 16

Compound: CCCCCc1cc(O)c2c(c1)OC(C)(C)[C@@H]1CC=C(C(=O)O)C[C@@H]21 [Δ^6-THC-7-oic acid, reference compound]
- percent inhibition of paw edema ([5]; dose 40.0 mg/kg): 50.2%

Compound: THC-7-oic Acid [reference compound]
- number of adhering cells x 10^-6 ± S.D. ([1]; dose 20 mg/kg oral, cells collected 90 min after administration, own control 0.81±0.03): 0.67±0.02 x 10^-6
- adhering cells, percent of control ([1]; dose 20 mg/kg oral, own control 0.81±0.03): 90.6% of control
- number of adhering cells x 10^-6 ± S.D. ([1]; dose 40 mg/kg oral, cells collected 90 min after administration, own control 0.81±0.03): 0.55±0.22 x 10^-6
- adhering cells, percent of control ([1]; dose 40 mg/kg oral, own control 0.81±0.03): 67.9% of control
